Entries after “also recorded” stand apart in the source; their conditions may differ.
Each compound was assayed against protein kinase (assay: HTS ATP-utilizing enzyme assay, off-chip mobility-shift format (Caliper HTS 250)). Conditions: kinase(s) for which the compound exhibits protein kinase inhibitory activity; test compound 10 μM; active = greater than three-sigma from the mean activity of inactive compounds.
Type: biochemical, human
Summary of the method: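 Kinase reactions ran 2.5 h at 20 to 22 °C with test compound at 10 μM, in a HEPES pH 7.5 master buffer containing Triton X-100 and BSA. Peptide substrate and phosphorylated product separated by mobility shift; inhibition normalized to DMSO (0%) and EDTA (100%) controls, with three-sigma thresholds for hits.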

Row | SMILES | Kinase
1 | Cc1ccc(-n2c(SCC#N)nnc2-c2ccncc2)cc1 [2-(5-(pyridin-4-yl)-4-p-tolyl-4H-1,2,4-triazol-3-ylthio)acetonitrile] | AURORA-A; also recorded: GSK3-β; also recorded: GSK3-α
2 | O=C(O)CSc1nnc(-c2cccs2)[nH]1 [2-(5-(thiophen-2-yl)-4H-1,2,4-triazol-3-ylthio)acetic acid] | DYRK2; also recorded: GSK3-β; also recorded: GSK3-α
3 | N#CCSc1nnc(-c2cccs2)[nH]1 [2-(5-(thiophen-2-yl)-4H-1,2,4-triazol-3-ylthio)acetonitrile] | DYRK2; also recorded: FLT-3; also recorded: AURORA-A
4 | Cc1cccc(-c2nnc(SCC(=O)O)[nH]2)c1 [2-(5-m-tolyl-4H-1,2,4-triazol-3-ylthio)acetic acid] | GSK3-β; also recorded: DYRK2; also recorded: AURORA-A
5 | Cc1nnc(SCC(=O)c2ccccc2)[nH]1 [2-(5-methyl-4H-1,2,4-triazol-3-ylthio)-1-phenylethanone] | GSK3-α; also recorded: GSK3-β; also recorded: DYRK2
6 | N#CCSc1nnc(-c2ccccc2)[nH]1 [2-(5-phenyl-4H-1,2,4-triazol-3-ylthio)acetonitrile] | DYRK2; also recorded: FLT-3; also recorded: AURORA-A

Further lines, results first:

Row | Kinase | SMILES
7 | AURORA-A | Cc1ccc(-n2c(SC(C)C(=O)O)nnc2-c2cccnc2)cc1 (stereo not shown) [2-(5-(pyridin-3-yl)-4-p-tolyl-4H-1,2,4-triazol-3-ylthio)propanoic acid]
8 | HCK | Cn1c(Cc2ccccc2)nnc1SCC(N)=O [2-(5-benzyl-4-methyl-4H-1,2,4-triazol-3-ylthio)acetamide]
9 | AURORA-A | Cn1c(Cc2ccccc2)nnc1SCC#N [2-(5-benzyl-4-methyl-4H-1,2,4-triazol-3-ylthio)acetonitrile]
10 | GSK3-β | COc1ccccc1-n1c(SCC(=O)O)nnc1C1CCCCC1 [2-(5-cyclohexyl-4-(2-methoxyphenyl)-4H-1,2,4-triazol-3-ylthio)acetic acid]
11 | SRC | CCn1c(SCC(=O)c2ccccc2)nnc1C1CCCCC1 [2-(5-cyclohexyl-4-ethyl-4H-1,2,4-triazol-3-ylthio)-1-phenylethanone]
12 | AURORA-A and MSK1 | CCn1c(SCC#N)nnc1C1CCCCC1 [2-(5-cyclohexyl-4-ethyl-4H-1,2,4-triazol-3-ylthio)acetonitrile]
13 | CHEK2 | N#CCSc1nnc(C2CCCCC2)n1-c1ccccc1 [2-(5-cyclohexyl-4-phenyl-4H-1,2,4-triazol-3-ylthio)acetonitrile]
14 | GSK3-α | N#CCSc1nnc(C2CCCCC2)[nH]1 [2-(5-cyclohexyl-4H-1,2,4-triazol-3-ylthio)acetonitrile]
15 | AURORA-A | Cc1ccc(-n2c(S)nnc2-c2ccccc2O)cc1 [2-(5-mercapto-4-p-tolyl-4H-1,2,4-triazol-3-yl)phenol]
16 | CDK2-cyclinE; also recorded: DAPK1 | Oc1ccccc1-c1nnc(S)n1CCc1ccccc1 [2-(5-mercapto-4-phenethyl-4H-1,2,4-triazol-3-yl)phenol]
17 | DYRK2 | Cc1nnc(SCC(N)=O)n1-c1ccccc1 [2-(5-methyl-4-phenyl-4H-1,2,4-triazol-3-ylthio)acetamide]
18 | MAPKAPK-2 and CDK2-cyclinE and LCK | Cc1nnc(SCC(=O)N2c3ccccc3Sc3ccccc32)[nH]1 [2-(5-methyl-4H-1,2,4-triazol-3-ylthio)-1-(10H-phenothiazin-10-yl)ethanone]
19 | GSK3-β; also recorded: GSK3-α | Cc1nnc(SCC(=O)O)[nH]1 [2-(5-methyl-4H-1,2,4-triazol-3-ylthio)acetic acid]
20 | DYRK2; also recorded: GSK3-α | CC(C)(C)c1nnc(SCC#N)[nH]1 [2-(5-tert-butyl-4H-1,2,4-triazol-3-ylthio)acetonitrile]
21 | AURORA-A | O=C(CSc1nncn1-c1cccnc1)Nc1cccc(C(=O)O)c1 [3-(2-(4-(pyridin-3-yl)-4H-1,2,4-triazol-3-ylthio)acetamido)benzoic acid]

Same assay, conditions: test compound 10 μM; active = activity greater than three-sigma from the mean of the predominately inactive population for that enzyme

Row | SMILES | protein kinase against which the compound exhibits inhibitory activity (Table 3)
22 | Cc1ccc(-n2c(SCCO)nnc2-c2ccncc2)cc1 [2-(5-(pyridin-4-yl)-4-p-tolyl-4H-1,2,4-triazol-3-ylthio)ethanol] | GSK3-β; also recorded: GSK3-α
23 | OCCSc1nnc(-c2cccs2)[nH]1 [2-(5-(thiophen-2-yl)-4H-1,2,4-triazol-3-ylthio)ethanol] | DYRK2; also recorded: FLT-3; also recorded: AURORA-A
24 | O=S(=O)(CCSc1nnc(Cc2ccccc2)n1-c1ccccc1)Nc1ccccc1 [2-(5-benzyl-4-phenyl-4H-1,2,4-triazol-3-ylthio)-N-phenylethanesulfonamide] | AKT2
25 | Cc1cccc(-c2nnc(SCC(N)=O)[nH]2)c1 [2-(5-m-tolyl-4H-1,2,4-triazol-3-ylthio)acetamide] | CHEK2; also recorded: AURORA-A; also recorded: FLT-3
26 | OCCSc1nnc(-c2ccccc2)[nH]1 [2-(5-phenyl-4H-1,2,4-triazol-3-ylthio)ethanol] | FLT-3; also recorded: AURORA-A; also recorded: DYRK2
27 | COc1ccc(-c2nnc(SCc3ccccc3C#N)[nH]2)cc1 [2-((5-(4-methoxyphenyl)-4H-1,2,4-triazol-3-ylthio)methyl)benzonitrile] | AURORA-A; also recorded: CHEK2; also recorded: GSK3-α
28 | N#Cc1ccccc1CSc1nnc(-c2cccnc2)[nH]1 [2-((5-(pyridin-3-yl)-4H-1,2,4-triazol-3-ylthio)methyl)benzonitrile] | AURORA-A; also recorded: GSK3-α; also recorded: CHEK2
29 | N#Cc1ccccc1CSc1nnc(-c2cccs2)[nH]1 [2-((5-(thiophen-2-yl)-4H-1,2,4-triazol-3-ylthio)methyl)benzonitrile] | AURORA-A; also recorded: CHEK2; also recorded: GSK3-α
30 | c1ccc2[nH]c(CSc3nnc(C4CCCC4)[nH]3)nc2c1 [2-((5-cyclopentyl-4H-1,2,4-triazol-3-ylthio)methyl)-1H-benzo[d]imidazole] | GSK3-α; also recorded: AURORA-A; also recorded: DYRK2
31 | Cc1nnc(SCc2nc3ccccc3[nH]2)[nH]1 [2-((5-methyl-4H-1,2,4-triazol-3-ylthio)methyl)-1H-benzo[d]imidazole] | DYRK2; also recorded: FLT-3; also recorded: AURORA-A
32 | Cc1nnc(SCc2ccccc2C#N)[nH]1 [2-((5-methyl-4H-1,2,4-triazol-3-ylthio)methyl)benzonitrile] | AURORA-A; also recorded: GSK3-β; also recorded: GSK3-α
33 | N#Cc1ccccc1CSc1nnc(-c2ccccc2)[nH]1 [2-((5-phenyl-4H-1,2,4-triazol-3-ylthio)methyl)benzonitrile] | AURORA-A; also recorded: CHEK2; also recorded: GSK3-β
34 | c1csc(-c2nnc(SCCN3CCCC3)[nH]2)c1 [3-(2-(pyrrolidin-1-yl)ethylthio)-5-(thiophen-2-yl)-4H-1,2,4-triazole] | GSK3-α; also recorded: GSK3-β; also recorded: DYRK2
35 | CCOCCSc1nnc(-c2ccc(OC(F)(F)F)cc2)[nH]1 [3-(2-ethoxyethylthio)-5-(4-(trifluoromethoxy)phenyl)-4H-1,2,4-triazole] | AURORA-A; also recorded: GSK3-β
36 | CCOCCSc1nnc(-c2cccs2)[nH]1 [3-(2-ethoxyethylthio)-5-(thiophen-2-yl)-4H-1,2,4-triazole] | AURORA-A; also recorded: DYRK2; also recorded: GSK3-β
37 | CCOCCSc1nnc(-c2ccccc2)[nH]1 [3-(2-ethoxyethylthio)-5-phenyl-4H-1,2,4-triazole] | 3-(2-ethoxyethylthio)-5-phenyl-4H-1,2,4-triazole AURORA-A and FLT-3 and DYRK2
38 | COCCSc1nnc(-c2ccc(OC)cc2)n1-c1ccccc1 [3-(2-methoxyethylthio)-5-(4-methoxyphenyl)-4-phenyl-4H-1,2,4-triazole] | SYK and INSR and PRAK
39 | CCOCCSc1nnc(-c2ccc(Cl)c(Cl)c2)[nH]1 [3-(3,4-dichlorophenyl)-5-(2-ethoxyethylthio)-4H-1,2,4-triazole] | AURORA-A; also recorded: GSK3-β; also recorded: GSK3-α
40 | CS(=O)(=O)c1ccc(CSc2nnc(-c3ccc(Cl)c(Cl)c3)[nH]2)cc1 [3-(3,4-dichlorophenyl)-5-(4-(methylsulfonyl)benzylthio)-4H-1,2,4-triazole] | AURORA-A; also recorded: FLT-3
41 | Clc1ccccc1CSc1nncn1-c1cccnc1 [3-(3-(2-chlorobenzylthio)-4H-1,2,4-triazol-4-yl)pyridine] | PDGFRR-α
42 | FC(F)(F)c1cccc(-c2nnc(SCc3cccc(I)c3)[nH]2)c1 [3-(3-iodobenzylthio)-5-(3-(trifluoromethyl)phenyl)-4H-1,2,4-triazole] | CHEK2
43 | COc1ccc(-c2nnc(SCc3cccc(I)c3)[nH]2)cc1 [3-(3-iodobenzylthio)-5-(4-methoxyphenyl)-4H-1,2,4-triazole] | AURORA-A
44 | Cc1nnc(SCc2cccc(I)c2)[nH]1 [3-(3-iodobenzylthio)-5-methyl-4H-1,2,4-triazole] | AURORA-A; also recorded: GSK3-α; also recorded: DYRK2
45 | Ic1cccc(CSc2nnc(-c3ccccc3)[nH]2)c1 [3-(3-iodobenzylthio)-5-phenyl-4H-1,2,4-triazole] | AURORA-A; also recorded: c-TAK1
46 | Cc1ccc(-c2nnc(SCCC(=O)O)n2-c2ccc(C)cc2)cc1 [3-(4,5-dip-tolyl-4H-1,2,4-triazol-3-ylthio)propanoic acid] | DAPK1

Reference: US20050288347A1, “Certain triazole-based compounds, compositions, and uses thereof” (priority 2004, published 2005)
